# Measured values from US10188633B2, “Identification of small molecules that facilitate therapeutic exon skipping” (The Regents of the University of California, priority 2011, dated 2019).
# Several values for one entry are separate records, joined by “and”; a condition that tells them apart may be missing. Identical values can stand only once. Counter-ions that a name gives are not always drawn. Like-named read-outs stand apart in the source and are kept apart here.
# Assays:
# exon skipping = assay: Counter screens, 16 point titrations and mdx mouse myotubes (validation of lead hits); type: cell-based
# From the text: The cell line, which was adapted to allow the screening of thousands of compounds in multiple replicates, was obtained from Dr. Qi Lu. […]
# DMD exon 51 = DMD exon 51 skipping in reprogrammed DMD patient fibroblasts fused to myotubes (GM05017, iDRM05017) with exon 51 AO; type: cell-based, human; settings: compound added 24 h after AO for two days; nested RT-PCR exons 43-52
# Description: (A) Differentiated primary mouse myotubes were transfected either with 100 nM 2′-O-methyl M23D, which targets exon 23 splice donor region or mock transfected for 24 hours after which the transfection reagent was removed, and myotubes were treated with different concentrations of Dantrolene for 48 hours. Nested RT-PCR was performed on cDNA between exons 20-26, as previously described. The 901 bp band is the full-length mRNA product, the 688 bp mRNA product is a single skip of exon 23, and the 550 bp mRNA product is a double skip of exons 22 and 23. (B) Mouse Dmd exon 23-skipped transcript levels were quantified using a taqman assay with primer-probe sets spanning the splice junction created by an exon 23 skip (22-24 join) relative to primers amplifying the splice junction of exons 22 and 23 (representing the full length mRNA), as previously described. […] Error bars represent standard deviation of qRT-PCR triplicates. (C) Patient derived fibroblasts with exon 45-50 deletion (confirmed by microarray, see FIG. 6) were immortalized with lentiviral hTERT and transduced with inducible lentiviral MyoD [26]. Cells were grown to confluence, induced for MyoD activity, and fused for 10 days in low serum differentiation media. On Day 7, h51AON [5′ […] 3′] (SEQ ID NO:2) (same sequence as Pro051) within human exon 51 was added at concentrations indicated. Twenty-four hours later Dantrolene or vehicle was added. Cells were harvested 2 days later and total RNA isolated. RT-PCR amplified a fragment of cDNA from exons 42-53 which was followed by a nested PCR to generate a fragment spanning exons 43-52. The 540 bp product is the full length DMD mRNA species and the 307 bp product indicates the exon 51 skip isoform. Quantitation was performed using the Agilent Bioanalyzer and represented as the skip/full-length mRNA ratio.
# Patient fibroblasts with a DMD exon 45-50 deletion were immortalized and transduced with a lenti-viral vector expressing inducible MyoD to create iDRMs (inducibly directly reprogrammable myotubes, specifically iDRM05017s). iDRM05017s were induced for MyoD activity and then cultured for 10 days in fusion media. On Day 7, AO was added for twenty-four hours then removed and Piperacetazine, Trifluoperazine Dihydrochloride, Fluphenazine Dihydrochloride or vehicle (Dimethyl sulfoxide; DMSO) were added in fresh media. After two days total RNA was harvested, cDNA reverse transcribed with a DMD specific primer in exon 54, and exon 51 skipping was detected by nested RT-PCR spanning exons 43-52. Quantitation of exon 51 skipping was performed using the Agilent Bioanalyzer and is represented as the proportion of exon 51 skipping. Error bars represent the standard deviation (SD) of 3 independent wells.
# Patient fibroblasts were transduced with HTERT and an inducible MyoD vector [26]. […] Exon 51 skipping activity was assessed in the context of transfecting an exon 51 2′-O-methyl AO with equivalent sequence to Pro051 seven days after fusion. This AO is directed at an exonic splicing enhancer (ESE) sequence within exon 51. The AO was removed prior to addition of dantrolene and cultures were harvested two days later. A nested RT-PCR was performed between DMD exons 43-52 and levels of exon 51 skipping were determined by quantitating capillary electrophoresis separated fragments representing skipped and unskipped DMD mRNA.
# [1] = test system: human DMD exon 50 GFP based reporter; assay: BioMol high throughput screen in Ex50-GFP reporter C2C12 myoblasts, with or without AON6; type: cell-based, mouse; settings: for Average Fluorescence (n = 3): average of 3 replicate plates
# From the text: Small molecule libraries were screened for exon skipping promoting activity in C2C12 myoblasts expressing a human DMD exon 50 GFP based reporter. […] In the reporter cells, successful skipping of DMD exon 50 creates in-frame GFP expression. Number of cells that were fluorescing was quantified using a high content cell imager in 384 well plate format. Fluorescence was normalized by subtracting the average fluorescence value of the carrier (DMSO) controls. Fluorescence readouts are plotted for the BioMol library screen both with (+AO) and without (−AO) from Source Plate 1 (containing the Orphan Ligand, Ion Channel, Enzyme Inhibitor, and Endocannabanoid libraries, n=300). Each point for the DMSO controls, all compounds, and the Top 5% from Source Plate 1 (n=15) represents the average normalized fluorescence of 6 replicates in the −AO screen and 3 replicates in the +AO screen. […] Individual points for dantrolene are plotted with the bold horizontal line indicating the median. The short horizontal lines interspersed among the data points indicate 1, 2, and 3 standard deviations away from the DMSO treatment mean fluorescence.
# In contrast to prior screens aimed at identifying small molecules which impact exon skipping, our screen is unique at least because it relies on robust quantitation of a skipping reporter in the context of a muscle lineage cell in the presence and absence of suboptimal AO. These screens were performed using a mouse muscle cell line (C2C12) expressing a human DMD exon 50 GFP based reporter selected to minimize experimental variation and sensitivity in the context of an automated and quantitative fluorescent scanning system.
# AO was added prior to small molecule incubation in an effort to identify molecules that facilitate AO skipping rather than AO delivery. The fluorescence induced by each compound was normalized to a vehicle controls per plate to correct for plate to plate variability. Fluorescence was averaged across replicate plates (n=6 without AO screen, n=3 with AO screen). Compounds were rank ordered based on average intensity of fluorescence and difference between the without AO and with AO screen (FIG. 1 and Table 2).
# A stable clone was generated from C2C12 cells transfected with a human exon 50 DMD GFP reporter (ex50GFP) that has been previously described. Ex50GFP reporter myoblasts were seeded into uncoated 384 well plates and were incubated for 4 hours either with or without 300 nM of 2′-O-methyl phosphorothioate AON6 [5′[…] 3′ (SEQ ID NO:1)] targeting the human exon 50 splice donor site. Cells were transfected with AON6 using the FUGENE (Roche) transfection reagent per manufacturer's instructions. Following AON6 incubation, each component of the BioMol library (n=503) was screened at 10 uM concentration with a final concentration of the DMSO carrier being 1%. Forty-eight hours later fluorescence was measured using the MicroXpress high content imager and analyzed using MetaXpress. Immediately preceding imaging, DNA was stained with Hoescht for 30 min. The BioMol screen without AO (−AO) was performed in 6 replicates, and the with AO (+AO) screen was performed in 3 replicates. For the screen analysis raw fluorescence values were normalized to carrier controls present on each plate by subtracting the values. Negative fluorescence values were set to 0. The data from each compound were averaged from all replicates. For secondary screening by 12 or 16 point dose response, Ex50GFP myoblasts or C2C12 cells without the reporter were seeded on uncoated 384 well plates. A sub-optimal dose of AON6 targeting DMD exon 50 was added for 4 hours.
# [2] = Without AON6 screen, compound 10 uM, 48 h, normalized to DMSO carrier controls
# [3] = Without AON6 screen, compound 10 uM, average of 6 replicate plates
# [4] = With AON6 screen, compound 10 uM, 48 h, fluorescence normalized by subtracting DMSO carrier controls
# [5] = With AON6 screen, compound 10 uM, 48 h, normalized to DMSO carrier controls
# [6] = With AON6 screen, compound 10 uM
compound,measurement,setting,value
Cc1c2ccncc2c(C)c2c1[nH]c1ccccc12 [Ellipticine],efficacy in counter screen and on mdx mouse myotubes,exon skipping,showing efficacy in counter screen and on mdx mouse myotubes
COC(=O)Nc1nc2cc(Sc3ccccc3)ccc2[nH]1 [Fenbendazole],efficacy in counter screen and on mdx mouse myotubes,exon skipping,showing efficacy in counter screen and on mdx mouse myotubes
OCCN1CCN(CCCN2c3ccccc3Sc3ccc(C(F)(F)F)cc32)CC1 [Fluphenazine dihydrochloride],AO directed DMD exon 51 skipping,DMD exon 51,enhance AO directed DMD exon 51 skipping
CCCCN(CCCC)CCC(O)c1cc2c(Cl)cc(Cl)cc2c2cc(C(F)(F)F)ccc12.Cl (stereo not drawn) [Halofantrine hydrochloride],efficacy in counter screen and on mdx mouse myotubes,exon skipping,showing efficacy in counter screen and on mdx mouse myotubes
CC1=CC(=O)c2ccccc2C1=O [Menadione],AO directed DMD exon 51 skipping,DMD exon 51,enhances AO directed DMD exon 51 skipping
COC(=O)C1=C(C)NC(C)=C(C(=O)OCCCN2CCC(c3ccccc3)(c3ccccc3)CC2)[C@H]1c1cccc([N+](=O)[O-])c1 [NIGULDIPINE],Average Fluorescence (n = 6),[1],4.12
same,Fluorescence Plate 1,[1],5.07
same,Fluorescence Plate 2,[1],1.34
same,Fluorescence Plate 3,[1],3.34
same,Fluorescence Plate 4,[1],8.06
same,Fluorescence Plate 5,[1],6.06
same,Fluorescence Plate 6,[1],0.84
O=C(Nc1ccc([N+](=O)[O-])cc1Cl)c1cc(Cl)ccc1O [Niclosamide],efficacy in counter screen and on mdx mouse myotubes,exon skipping,showing efficacy in counter screen and on mdx mouse myotubes
CCCCCCCC/C=C\CCCCCCCC(=O)NCCc1ccc(O)c(O)c1 [Oleoyl dopamine],Fluorescence Plate 1,[1]; [2],2.78
same,Fluorescence Plate 2,[1]; [2],1.51
same,Fluorescence Plate 3,[1]; [2],12.34
same,Fluorescence Plate 4,[1]; [2],3.21
same,Fluorescence Plate 5,[1]; [2],3.30
same,Fluorescence Plate 6,[1]; [2],1.32
same,Average Fluorescence (n = 6),[1]; [3],4.08
O=c1[nH]c2ccccc2n1C1CCN(CCCC(c2ccc(F)cc2)c2ccc(F)cc2)CC1 [PIMOZIDE],efficacy in counter screen and on mdx mouse myotubes,exon skipping,showing efficacy in counter screen and on mdx mouse myotubes
CCN(CC)CCNC(=O)c1ccc(N)cc1 [PROCAINAMIDE],Fluorescence Plate 1,[1]; [4],13.80
same,Fluorescence Plate 2,[1]; [5],19.66
same,Fluorescence Plate 3,[1]; [5],20.81
same,Average Fluorescence (n = 3),[1]; [6],18.09
COC(=O)[C@H]1[C@H]2C[C@@H]3c4[nH]c5cc(OC)ccc5c4CCN3C[C@H]2C[C@@H](OC(=O)c2cc(OC)c(OC)c(OC)c2)[C@@H]1OC [Reserpine],efficacy in counter screen and on mdx mouse myotubes,exon skipping,showing efficacy in counter screen and on mdx mouse myotubes
Cn1cc(C2=C(c3cn(CCCSC(=N)N)c4ccccc34)C(=O)NC2=O)c2ccccc21 [Ro 31-8220],Fluorescence Plate 1,[1]; [2],17.56
same,Fluorescence Plate 2,[1]; [2],50.61
same,Fluorescence Plate 3,[1]; [2],46.79
same,Fluorescence Plate 4,[1]; [2],38.49
same,Fluorescence Plate 5,[1]; [2],31.21
same,Fluorescence Plate 6,[1]; [2],34.94
same,Average Fluorescence (n = 6),[1]; [3],36.60
COc1ccc2c(c1)CN(C)CCS2 [RyCal S107],AO directed DMD exon 51 skipping,DMD exon 51,enhance AO directed DMD exon 51 skipping
CCOC(=O)Oc1c(OC)cc(C(=O)O[C@@H]2C[C@@H]3CN4CCc5c([nH]c6cc(OC)ccc56)[C@H]4C[C@@H]3[C@H](C(=O)OC)[C@H]2OC)cc1OC [Syrosingopine],efficacy in counter screen and on mdx mouse myotubes,exon skipping,showing efficacy in counter screen and on mdx mouse myotubes
COc1ccc2cc1Oc1ccc(cc1)C[C@H]1c3cc(c(OC)cc3CCN1C)Oc1c(OC)c(OC)cc3c1[C@H](C2)N(C)CC3 [TETRANDRINE],Fluorescence Plate 1,[1]; [2],3.15
same,Fluorescence Plate 2,[1]; [2],2.41
same,Fluorescence Plate 3,[1]; [2],5.39
same,Fluorescence Plate 4,[1]; [2],4.64
same,Fluorescence Plate 5,[1]; [2],5.03
same,Fluorescence Plate 6,[1]; [2],6.64
same,Average Fluorescence (n = 6),[1]; [3],4.54
N#C/C(=C\c1ccc(O)c(O)c1)C(N)=O [TYRPHOSTIN 46],Fluorescence Plate 1,[1]; [4],8.61
same,Fluorescence Plate 2,[1]; [5],30.70
same,Fluorescence Plate 3,[1]; [5],14.09
same,Average Fluorescence (n = 3),[1]; [6],17.80
CN1CCN(CCCN2c3ccccc3Sc3ccc(C(F)(F)F)cc32)CC1 [Trifluoperazine dihydrochloride],AO directed DMD exon 51 skipping,DMD exon 51,enhance AO directed DMD exon 51 skipping
N#CC(=C(N)Sc1ccccc1N)C(C#N)=C(N)Sc1ccccc1N [U-0126],Fluorescence Plate 1,[1]; [4],17.87
same,Fluorescence Plate 2,[1]; [5],35.65
same,Fluorescence Plate 3,[1]; [5],16.65
same,Average Fluorescence (n = 3),[1]; [6],23.39
COC[C@H]1OC(=O)c2coc3c2[C@@]1(C)C1=C(C3=O)[C@@H]2CCC(=O)[C@@]2(C)C[C@H]1OC(C)=O [WORTMANNIN],Fluorescence Plate 1,[1]; [2],4.99
same,Fluorescence Plate 2,[1]; [2],3.07
same,Fluorescence Plate 3,[1]; [2],4.23
same,Fluorescence Plate 4,[1]; [2],5.92
same,Fluorescence Plate 5,[1]; [2],6.44
same,Fluorescence Plate 6,[1]; [2],3.78
same,Average Fluorescence (n = 6),[1]; [3],4.74
O=C(O)[C@@H]1[C@H]2C[C@H]3c4[nH]c5ccccc5c4CCN3C[C@@H]2CC[C@@H]1O [Yohimbinic acid],AO directed DMD exon 51 skipping,DMD exon 51,enhance AO directed DMD exon 51 skipping
CC(=O)c1ccc2c(c1)N(CCCN1CCC(CCO)CC1)c1ccccc1S2 [piperacetazine],AO directed DMD exon 51 skipping,DMD exon 51,enhance AO directed DMD exon 51 skipping
COC(=O)[C@H]1[C@H]2C[C@H]3c4[nH]c5ccccc5c4CCN3C[C@H]2CC[C@@H]1O [rauwolscine hydrochloride],AO directed DMD exon 51 skipping,DMD exon 51,enhance AO directed DMD exon 51 skipping
INDIRUBIN,Fluorescence Plate 3,[1]; [2],6.43 and 6.44
same,Fluorescence Plate 5,[1]; [2],3.42 and 6.60
same,Average Fluorescence (n = 6),[1]; [3],17.88 and 8.26
Ryanodine,AO directed DMD exon 51 skipping,DMD exon 51,enhance AO directed DMD exon 51 skipping
same,Fluorescence Plate 1,[1]; [4],7.93
same,Fluorescence Plate 2,[1]; [5],28.86
same,Fluorescence Plate 3,[1]; [5],13.31
same,Average Fluorescence (n = 3),[1]; [6],16.70
